According to PubChem BioAssay (NCI):
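Method: 48-hour compound exposure of cells in 96-well plates, five concentrations, linear interpolation of endpoints. TGI denotes the concentration required for complete inhibition of growth.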

Assays:
Assay in all cases: DTP human tumour cell line panel, 48 h
[1] = test system: OVCAR-8 ovarian
[2] = test system: SK-MEL-2 melanoma
[3] = test system: HCT-15 colon
[4] = test system: HL-60(TB) leukemia
[5] = test system: SN12C renal
[6] = test system: NCI-H226 lung
[7] = test system: OVCAR-4 ovarian
[8] = test system: K-562 leukemia
[9] = test system: UO-31 renal
[10] = test system: SK-MEL-5 melanoma
[11] = test system: OVCAR-5 ovarian
[12] = test system: HOP-92 NSCLC
[13] = test system: NCI-H460 lung
[14] = test system: NCI-H522 lung
[15] = test system: HOP-62 NSCLC
[16] = test system: UACC-257 melanoma
[17] = test system: LXFL 529 NSCLC
[18] = test system: M14 melanoma
[19] = test system: LOX IMVI melanoma
[20] = test system: IGROV1 ovarian
[21] = test system: DLD-1 colon
[22] = test system: SNB-78 CNS
[23] = test system: XF 498 CNS
[24] = test system: SW-620 colon
[25] = test system: RPMI-8226 leukemia
[26] = test system: SK-OV-3 ovarian
[27] = test system: OVCAR-3 ovarian
[28] = test system: MOLT-4 leukemia
[29] = test system: HT29 colon
[30] = test system: KM12 colon
[31] = test system: CAKI-1 renal
[32] = test system: CCRF-CEM leukemia
[33] = test system: HCT-116 colon
[34] = test system: A498 renal
[35] = test system: DMS 273 small cell lung
[36] = test system: KM20L2 colon
[37] = test system: M19-MEL melanoma
[38] = test system: SF-539 CNS
[39] = test system: UACC-62 melanoma
[40] = test system: SF-295 CNS
[41] = test system: SF-268 CNS
[42] = test system: U251 CNS
[43] = test system: HOP-18 NSCLC
[44] = test system: TK-10 renal
[45] = test system: MALME-3M melanoma
[46] = test system: NCI-H23 lung
[47] = test system: SNB-75 CNS
[48] = test system: RXF 393 renal
[49] = test system: 786-0 renal
[50] = test system: COLO 205 colon
[51] = test system: DMS 114 small cell lung
[52] = test system: EKVX NSCLC
[53] = test system: SNB-19 CNS
[54] = test system: A549 NSCLC
[55] = test system: SK-MEL-28 melanoma
[56] = test system: HCC-2998 colon
[57] = test system: ACHN renal

N#Cc1cccc(NC(=O)c2ccc(C(=O)O)c(C(=O)c3ccc(C(=O)O)c(C(=O)Nc4cccc(C#N)c4)c3)c2)c1
TGI [1]: > 100 µM | TGI [2]: > 100 µM | TGI [3]: > 100 µM | TGI [4]: > 100 µM | TGI [5]: > 100 µM | TGI [6]: > 100 µM | TGI [7]: > 100 µM | TGI [8]: > 100 µM | TGI [9]: > 100 µM | TGI [10]: > 100 µM | TGI [11]: > 100 µM | TGI [12]: > 100 µM | TGI [13]: > 100 µM | TGI [14]: > 100 µM | TGI [15]: > 100 µM | TGI [16]: > 100 µM | TGI [17]: > 100 µM | TGI [18]: > 100 µM | TGI [19]: > 100 µM | TGI [20]: > 100 µM | TGI [21]: > 100 µM | TGI [22]: > 100 µM | TGI [23]: > 100 µM | TGI [24]: > 100 µM | TGI [25]: > 100 µM | TGI [26]: > 100 µM | TGI [27]: > 100 µM | TGI [28]: > 100 µM | TGI [29]: > 100 µM | TGI [30]: > 100 µM | TGI [31]: > 100 µM | TGI [32]: > 100 µM | TGI [33]: > 100 µM | TGI [34]: > 100 µM | TGI [35]: > 100 µM | TGI [36]: > 100 µM | TGI [37]: > 100 µM | TGI [38]: > 100 µM | TGI [39]: > 100 µM | TGI [40]: > 100 µM | TGI [41]: > 100 µM | TGI [42]: > 100 µM | TGI [43]: > 100 µM | TGI [44]: > 100 µM | TGI [45]: > 100 µM | TGI [46]: > 100 µM | TGI [47]: > 100 µM | TGI [48]: > 100 µM | TGI [49]: > 100 µM | TGI [50]: > 100 µM | TGI [51]: > 100 µM | TGI [52]: > 100 µM | TGI [53]: > 100 µM | TGI [54]: > 100 µM

CC(C)(C)N=C1CC(C)(C)c2ccccc2C(=Nc2ccccc2)S1
TGI [1]: > 100 µM | TGI [2]: 99 µM | TGI [3]: > 100 µM | TGI [4]: 36 µM | TGI [5]: > 100 µM | TGI [6]: > 100 µM | TGI [8]: > 100 µM | TGI [9]: > 100 µM | TGI [10]: 59.2 µM | TGI [11]: > 100 µM | TGI [13]: > 100 µM | TGI [14]: 46.7 µM | TGI [15]: > 100 µM | TGI [16]: > 100 µM | TGI [17]: > 100 µM | TGI [18]: > 100 µM | TGI [19]: 40.1 µM | TGI [20]: > 100 µM | TGI [21]: > 100 µM | TGI [22]: > 100 µM | TGI [23]: 45.5 µM | TGI [24]: > 100 µM | TGI [25]: 41.5 µM | TGI [26]: > 100 µM | TGI [27]: > 100 µM | TGI [55]: > 100 µM | TGI [28]: 69.2 µM | TGI [29]: > 100 µM | TGI [30]: > 100 µM | TGI [31]: > 100 µM | TGI [32]: > 100 µM | TGI [33]: > 100 µM | TGI [34]: > 100 µM | TGI [35]: > 100 µM | TGI [36]: > 100 µM | TGI [37]: > 100 µM | TGI [38]: > 100 µM | TGI [39]: > 100 µM | TGI [40]: > 100 µM | TGI [41]: > 100 µM | TGI [56]: > 100 µM | TGI [57]: > 100 µM | TGI [42]: > 100 µM | TGI [44]: > 100 µM | TGI [45]: 96.5 µM | TGI [46]: 98.6 µM | TGI [47]: > 100 µM | TGI [48]: > 100 µM | TGI [49]: > 100 µM | TGI [50]: 49.6 µM | TGI [51]: 83.4 µM | TGI [52]: > 100 µM | TGI [53]: > 100 µM | TGI [54]: > 100 µM
